Laboratory results reported in patent publication US11549198B2, “Method of producing non-woven protein fibers” (Rowan University, priority 2017, dated 2023).

Experiment: Drug release study of model drugs from corn zein fibers and films in phosphate buffer
Type: physicochemical
Details: for n value from the Korsmeyer-Peppas equation of model drug release profile / release percentage at the 15-minute time point: 20 mM phosphate buffer (pH 7.0); for n value from the Korsmeyer-Peppas equation of model drug release profile: up to 96 hours; for release percentage at the 15-minute time point: fibers
Protocol: Approximately 0.05 g of film or fiber mesh was placed in 50 mL of 20 mM phosphate buffer (pH 7.0). Drug release was done in triplicate under conditions of dynamic flow. At the appropriate time points (15 minutes, 30 minutes, 1 hour, 2 hours, 3 hours, 4 hours, 5 hours, 24 hours, 48 hours, 96 hours), aliquots of solution were removed from the samples. The absorbance of each aliquot was measured at the appropriate wavelength for the corresponding model drug using a SpectraMax i3x Plate Reader (Molecular Devices LLC, Sunnyvale, Calif., USA). Absorbance was related to concentration and the values from the three aliquots were averaged and graphed as a function of time. Upon completion of the study, fibers were extracted from solution via suction filtration and dried overnight. Release profiles were then fit with the Krosmeyer-Peppas release model shown in equation 1: […]
To further investigate the potential effectiveness of the supramolecular systems for transdermal drug delivery, drug release of the model drugs incorporated in either films or fibers was simulated in 0.1% w/v 20 mM phosphate buffer (pH 7.0) for different times. Shown in FIGS. 16A-16B are the normalized release profiles for the fiber and film models, respectively. Data points were normalized based on the amount of drug released at 96 hours. No significant drug release was observed above 96 hours for all samples. […] Alcian blue is a very large molecule (MW 1.3 kDa), so it is reasonable to assume its bulkiness prevents it from being efficiently integrated into the zein structure. […] This can be attributed to the nature of the method used to fabricate the films. The corn zein was exposed to formic acid for a longer period of time during film synthesis than during fiber generation. During this time, the formic acid may have severed some of the hydrogen bonds of the corn zein structure, allowing the integration of the model drug molecules.

| SMILES | n value from the Korsmeyer-Peppas equation of model drug release profile (Fiber) | n value from the Korsmeyer-Peppas equation of model drug release profile (Film) | release percentage at the 15-minute time point | release profile at the earlier points (films, in contrast to the fibers) |
| --- | --- | --- | --- | --- |
| CN(C)C(SCc1ccc2c(c1)-c1nc-2nc2[n-]c(nc3nc(nc4[n-]c(n1)c1ccc(CSC(N(C)C)=[N+](C)C)cc41)-c1ccc(CSC(N(C)C)=[N+](C)C)cc1-3)c1ccc(CSC(N(C)C)=[N+](C)C)cc21)=[N+](C)C.[Cl-].[Cl-].[Cl-].[Cl-].[Cu+2] [Alcian Blue, alcian blue 8GX] | 0.1104 | 0.1507 | considerably high release percentage | – |
| O=C1/C(=C2\Nc3ccc(S(=O)(=O)[O-])cc3C2=O)Nc2ccc(S(=O)(=O)[O-])cc21.[Na+].[Na+] [Indigo Carmine, indigo carmine] | 0.1318 | 0.430 | considerably high release percentage | dramatic drop |
| CCN(CC)c1ccc2c(-c3ccccc3C(=O)O)c3ccc(=[N+](CC)CC)cc-3oc2c1.[Cl-] [Rhodamine B, rhodamine B] | 0.337 | 0.203 | – | – |

More lines, now with the values ahead:

| n value from the Korsmeyer-Peppas equation of model drug release profile (Fiber) | n value from the Korsmeyer-Peppas equation of model drug release profile (Film) | release percentage at the 15-minute time point | release profile at the earlier points (films, in contrast to the fibers) | SMILES |
| --- | --- | --- | --- | --- |
| 0.392 | 0.284 | – | – | CO[C@H]1/C=C/O[C@@]2(C)Oc3c(C)c(O)c4c(O)c(c(/C=N/N5CCN(C)CC5)c(O)c4c3C2=O)NC(=O)/C(C)=C\C=C\[C@H](C)[C@H](O)[C@@H](C)[C@@H](O)[C@@H](C)[C@H](OC(C)=O)[C@@H]1C [Rifampin, rifampin] |
| 0.353 | 0.1184 | – | – | CN(C)c1ccc(C(=C2C=CC(=[N+](C)C)C=C2)c2ccc(N(C)C)cc2)cc1 [Crystal Violet, Crystal violet] |
